# According to patent US9920069B2, “Compounds for treatment of fluoroquinolone-resistant bacteria” (The Board of Trustees of the University of Illinois, priority 2014, dated 2018):
# Marks after values point to notes of the source that are not given here.
# Columns and labels:
# physchem [1] = conditions: organic solvent or mixture, thermodynamic from solid
# [2] = tested on: S. aureus 29213 (WT GyrA and WT ParC); assay: microbe, parasite or virus in culture; format: cell-based; conditions: Staphylococcus aureus; WT GyrA and WT ParC; read-out: MIC against S. aureus 29213
# Procedure: Susceptibility testing was performed in triplicate using the microdilution broth method as outlined by the Clinical and Laboratory Standards Institute CLSI^52. MH broth was used.
# physchem [3] = assay: physchem
# Procedure: Enough PBS was added to make a 1 mg/mL solution. Compounds were then assessed by LC-MS and compared to a calibration curve to determine the solubility. […] Data shown is from three independent replicates±SEM. […] Between DMSO additions, the vial was vortexed and sonicated.
# The compound was vortexed for ˜30 seconds before being placed into a bath sonicator (Cole Parmer, ultrasonic cleaner) for 1 h. […] The tubes were vortexed again for 30 s before being centrifuged at maximum speed (13,000×g) for 10 minutes. The supernatant was then filtered through a 0.22 μm syringe filter (Millipore Millex MP). […] Three independent replicates of each compound were performed. A calibration curve for each compound was generated from 1-400 μM by dissolving the compound in DMSO and making dilutions of the stock in DMSO. […] The concentration of the samples was calculated based on the calibration curves.
# A. baumannii KB304 = conditions: starred: previously determined; cited from earlier work
# [4] = tested on: low level CIP resistant strains of S. aureus ATCC 29213 (ParC mutation); assay: microbe, parasite or virus in culture; format: cell-based; conditions: Staphylococcus aureus, ATCC29213
# Enterococcus ATCC 19433 = assay: organism not typed; format: cell-based, E. faecalis
# A. baumannii KB349 = conditions: starred: previously determined; cited from earlier work
# Enterococcus ATCC 29212 = assay: organism not typed; format: cell-based, E. faecalis
Structure (SMILES),solubility (physchem [1]) [mM],MIC [2] [µg/mL],further results
CCCCCCn1c(=O)cc(C)c2cc3c(C)cc(=O)n4c3c(c21)OC4 [Compound 10],56.7,> 64,–
Cc1cc(=O)n2c3c(c4c(cc13)c(C)cc(=O)n4CC(C)C)OC2 [Compound 11],7.1,> 32,–
CCCc1cc(=O)n(C)c2c3c4c(cc12)c(C)cc(=O)n4CO3 [Compound 7],5.8,16,–
CCCCn1c(=O)cc(CCC)c2cc3c(CCC)cc(=O)n4c3c(c21)OC4 [Compound 15],4.2,> 32,–
Cc1cc(=O)n2c3c(c4c(cc13)c(C)cc(=O)n4CC(C)(C)C)OC2 [Compound 12],38.7,32,–
CCc1cc(=O)n(C)c2c3c4c(cc12)c(C)cc(=O)n4CO3 [Compound 4],4.7,8,"Solubility in pH 7.4 PBS (physchem [3]; pH 7.4 PBS, three replicates ± SEM): 53 μM"
CCCc1cc(=O)n(C)c2c3c4c(cc12)c(CCC)cc(=O)n4CO3 [Compound 14],18.3,> 32,"solubility at 1 h (physchem [3]; pH 7.4, aqueous buffer, thermodynamic from solid): < 0.001 mM"
"O=C(O)c1cn(C2CC2)c2cc(N3CCNCC3)c(F)cc2c1=O [CIP, ciprofloxacin, reference compound]",–,–,CIP MIC (A. baumannii KB304): 24* ^ μg mL^−1; MIC [4]: 4 to 8 µg/mL; MIC (Enterococcus ATCC 19433): 2 µg/mL; CIP (S/I/R) (Enterococcus ATCC 19433; ATCC 19433): S (sensitive (S) if it had an MIC≤4 μg mL^−1); CIP MIC (A. baumannii KB349): >32* μg mL^−1; MIC (Enterococcus ATCC 29212): 0.5 to 2 µg/mL; CIP (S/I/R) (Enterococcus ATCC 29212; ATCC 29212): S (sensitive (S) if it had an MIC≤4 μg mL^−1)
